Measured values published in PMC12063055 (Crystal Growth & Design, 2025).
In brackets after ≈: the same amount, converted by molar mass. Where two headings read alike, the source gives them in different places. One block for each compound: values may come before it.

Experiments:
[1] = Solubility studies, shake-flask method with HPLC quantification of HAL; type: physicochemical; conditions: for solubility in KCl pH 1.2: buffer KCl (0.2 M) pH 1.2, 24 h stirring at 25 °C; for solubility in KCl pH 1.2 / solubility in PBS pH 6.8: HAL concentration by HPLC at 248 nm; for improvement over HAL (solubility in KCl pH 1.2): buffer KCl pH 1.2, ratio to HAL solubility; for solubility in PBS pH 6.8: buffer PBS (0.2 M) pH 6.8, 24 h stirring at 25 °C; for improvement over HAL (solubility in PBS pH 6.8): buffer PBS pH 6.8, ratio to HAL solubility
Description: A Scharlau (Barcelona, Spain) 100 C18 chromatographic column (3 μm, 150 × 4.6 mm) was set at 25 °C and used for compound separation, using an isocratic elution method. The mobile phase was composed of a mixture of 90% acetonitrile and 10% water. The flow rate was 0.8 mL/min, and the injection volume was 30 μL. ChemStation software was used for data acquisition and analysis (Agilent Technologies, Santa Clara, CA, USA).

[2] = high permeability but poor solubility in aqueous solution; ref [5],[6]; cited from earlier work
[3] = Acidity values (pKa) of the molecules, literature values; type: physicochemical; conditions: pKa1 of HAL minus pKa1 of coformer
[4] = 25 °C, pH 1.2, aqueous buffer, thermodynamic from solid, read-out: solubility in KCl pH 1.2
[5] = 25 °C, pH 6.8, aqueous buffer, thermodynamic from solid, read-out: solubility in PBS pH 6.8

SMILES: O=C(CCCN1CCC(O)(c2ccc(Cl)cc2)CC1)c1ccc(F)cc1.O=C(CCCN1CCC(O)(c2ccc(Cl)cc2)CC1)c1ccc(F)cc1.O=C(O)/C=C/C(=O)O.O=C(O)/C=C/C(=O)O [(HAL^+)2·(FU^2–)·(FU)]
solubility at 24 h [1, 4]: 1060 ± 27 µg/mL | solubility at 24 h [1, 5]: 33 ± 4 µg/mL | solubility at 24 h ([1]; pH 1.2, read-out: solubility in KCl pH 1.2): ~1000 µg/mL

SMILES: O=C(CCCN1CCC(O)(c2ccc(Cl)cc2)CC1)c1ccc(F)cc1 [HAL, Haloperidol, reference compound]
solubility at 24 h ([1]; KCl buffer (0.2 M) pH 1.2, 25 °C, pH 1.2, aqueous buffer, thermodynamic from solid, read-out: solubility in KCl pH 1.2): 831 ± 42 µg/mL (≈ 2210 µM) | solubility at 24 h ([1]; PBS buffer (0.2 M) pH 6.8, 25 °C, pH 6.8, aqueous buffer, thermodynamic from solid, read-out: solubility in PBS pH 6.8): 7 ± 1 µg/mL (≈ 18.6 µM) | Biopharmaceutics Classification System (BCS) class [2]: Class II

SMILES: O=C(CCCN1CCC(O)(c2ccc(Cl)cc2)CC1)c1ccc(F)cc1.O=C(O)CCCCCC(=O)O [HAL^+·PI^–]
solubility in KCl pH 1.2 [1]: 1.246 ± 0.035 mg/mL | improvement over HAL (solubility in KCl pH 1.2) [1]: 1.5× | solubility in PBS pH 6.8 [1]: 0.072 ± 0.001 mg/mL | improvement over HAL (solubility in PBS pH 6.8) [1]: 9.7×

SMILES: O=C(CCCN1CCC(O)(c2ccc(Cl)cc2)CC1)c1ccc(F)cc1.O=C(CCCN1CCC(O)(c2ccc(Cl)cc2)CC1)c1ccc(F)cc1.O=C(O)c1ccc(C(=O)O)cc1.O=C(O)c1ccc(C(=O)O)cc1 [(HAL^+)2·(TR^2–)·(TR)]
solubility in KCl pH 1.2 [1]: 0.678 ± 0.019 mg/mL | solubility in PBS pH 6.8 [1]: 0.051 ± 0.002 mg/mL

ΔpKa1 (difference of acidity of the coformer with HAL) [3]: 3.52
SMILES: O=C(O)CCCCCCC(=O)O [Suberic acid, suberic acid]

SMILES: O=C(CCCN1CCC(O)(c2ccc(Cl)cc2)CC1)c1ccc(F)cc1.O=C(O)CCCC(=O)O [HAL^+·GU^–]
solubility in KCl pH 1.2 [1]: 1.021 ± 0.012 mg/mL | solubility in PBS pH 6.8 [1]: 0.048 ± 0.001 mg/mL

SMILES: O=C(O)CCCC(=O)O [Glutaric acid, glutaric acid]
ΔpKa1 (difference of acidity of the coformer with HAL) [3]: 3.71

SMILES: O=C(CCCN1CCC(O)(c2ccc(Cl)cc2)CC1)c1ccc(F)cc1.O=C(O)CC(=O)O [HAL^+·MO^–]
solubility at 24 h [1, 4]: 525 ± 37 µg/mL | solubility at 24 h [1, 5]: 119 ± 2 µg/mL

SMILES: O=C(CCCN1CCC(O)(c2ccc(Cl)cc2)CC1)c1ccc(F)cc1.O=C(CCCN1CCC(O)(c2ccc(Cl)cc2)CC1)c1ccc(F)cc1.O=C(O)CCCCCCC(=O)O.O=C(O)CCCCCCC(=O)O [(HAL^+)2·(SU^2–)·(SU)]
solubility in KCl pH 1.2 [1]: 1.074 ± 0.036 mg/mL | improvement over HAL (solubility in KCl pH 1.2) [1]: 1.3× | solubility in PBS pH 6.8 [1]: 0.017 ± 0.001 mg/mL | improvement over HAL (solubility in PBS pH 6.8) [1]: 2.3×

SMILES: O=C(CCCN1CCC(O)(c2ccc(Cl)cc2)CC1)c1ccc(F)cc1.O=C(O)/C=C\C(=O)O [HAL^+·ME^–]
solubility at 24 h [1, 4]: 1400 ± 20 µg/mL | solubility at 24 h [1, 5]: 74 ± 4 µg/mL | solubility of the salt relative to the ionic cocrystal (HAL^+)2·(FU^2–)·(FU) ([1]; both phases with C4 coformers): twice

ΔpKa1 (difference of acidity of the coformer with HAL) [3]: 3.55
SMILES: O=C(O)CCCCCC(=O)O [Pimelic acid, pimelic acid]
